These results are taken from patent US11136321B2, “Tricyclic compounds” (ALIGOS THERAPEUTICS, INC., priority 2019, dated 2021).

A word on the pEC50: it is the negative decadic logarithm of the EC50, by convention in mol/L.

pEC50: −log10 of the molar value.

For one experiment, the system named is HBV. Nature of the experiment: HBV-DNA antiviral assay using HepG2.117 cells. To be noted: Hepatitis B virus, 72 h, intracellular HBV DNA by qPCR, 3 days incubation. Format: cell-based, genotype D HBV. Here is the method: The following assay procedure describes the HBV antiviral assay, using HepG2.117 cells, which carry a stably integrated genotype D HBV genome under the control of a Tet-off promoter, and intracellular HBV DNA quantification as endpoint. Cell viability is assessed in parallel by measuring the intracellular ATP content using ATPlite (Perkin Elmer).
On day 0, HepG2.117 cells (which are maintained in routine cell culture with doxycycline present in the medium at a final concentration of 1 μg/mL) were seeded in 96-well plates (white with clear bottom) at a density of 2.0×10^4 cells/well (0.1 mL/well) in medium without doxycycline to induce pgRNA transcription and subsequent formation of HBV particles. The cells were incubated at 37° C. and 5% CO2.
On day 1, medium was removed from each well, the test articles were diluted in culture medium without doxcycyline and 100 μL was added to cell culture wells (9 concentrations, 4-fold dilution). For each plate, 6 untreated (merely DMSO) wells were included. The final concentration of DMSO in the culture medium was 2%. Each plate was prepared in duplicate (one for HBV DNA extraction, one for ATPlite measurement). The cells were incubated at 37° C. and 5% CO2 for 3 days.
On day 4, cell viability was assessed using ATPlite and cell lysates were prepared for HBV DNA extraction and subsequent quantification by qPCR.
Medium was removed from each well and 100 μL of 0.33% NP-40 in H2O was added to each well. Plates were sealed, incubated at 4° C. for 5 mins, vortexed extensively and centrifuged briefly. Next, 35 μL of lysate was added to 65 μL QuickExtract DNA Extraction Solution (Epicentre) in a PCR plate for each well. PCR plate was incubated at 65° C. for 6 mins, 98° C. for 2 mins and finally cooled to 4° C. HBV DNA was then quantified by qPCR with HBV-specific primers and probes as specified in Table 1 using the Bio-Rad SSOAdvanced Universal Probes Supermix on a CFX96 machine (Bio-Rad). The PCR cycle program consisted of 95° C. for 3 mins, followed by 40 cycles at 95° C. for 10 sec and 60° C. for 30 sec.
A DNA standard was prepared by dilution of an IDT gBlock corresponding to the amplicon with concentrations ranging from 10^2 to 10^8 copies/input (i.e. per 4 μL) and used to generate a standard curve by plotting Cq values vs. HBV DNA standard concentration. The quantity of HBV DNA in each sample was determined by interpolating from the standard curve.
Cell viability was calculated as follows: % Cell viability=(luminescence value of test sample)/(average luminescence value of 2% DMSO control)×100%. HBV DNA inhibition was calculated as follows: 100−(HBV DNA copy number of test sample)/(average HBV DNA copy number of 2% DMSO control)×100%. No normalization to entecavir was required due to the excellent dynamic window of this assay. The CC50, EC50 and EC90 values were determined by dose-response curves fitted by GraphPad Prism using “log (agonist) vs. response—Variable slope”.
The molecule `CNC(=O)c1ccc(-n2c(=O)c3c(n4ncc(Cc5ccc(OC(F)(F)F)cc5)c24)CN(C(=O)c2ccc(Cl)c(Cl)c2)CC3)cc1` [Compound 36, 4-[12-(3,4-dichlorobenzoyl)-8-oxo-5-[[4-(trifluoromethoxy)phenyl]methyl]-2,3,7,12-tetrazatricyclo [7.4.0.0 2,6]trideca-1(9),3,5-trien-7-yl]-N-methyl-benzamide] showed a negative logarithm of the EC50 (pEC50) of 6.30 to 7.00.

The molecule `CC(C)NC(=O)c1ccc(-n2c(=O)c3c(n4ncc(Cc5ccccc5)c24)CN(C(=O)c2ccc(Br)c(C#N)c2)CC3)cc1` [Compound 65, 4-[5-benzyl-12-(4-bromo-3-cyano-benzoyl)-8-oxo-2,3,7,12-tetrazatricyclo [7.4.0.0 2,6]trideca-1(9),3,5-trien-7-yl]-N-isopropyl-benzamide] had a pEC50 of 5.30 to 6.30.

`COc1ccc(-n2c(=O)c3c(n4ncc(NC(=O)Cc5ccccc5)c24)CN(C(=O)c2ccc(Cl)c(Cl)c2)CC3)cc1` [Compound 23, N-[12-(3,4-dichlorobenzoyl)-7-(4-methoxyphenyl)-8-oxo-2,3,7,12-tetrazatricyclo [7.4.0.0 2,6]trideca-1(9),3,5-trien-5-yl]-2-phenyl-acetamide] gave a pEC50 of 5.30 to 6.30.

In turn, `CCNC(=O)c1ccc(-n2c(=O)c3c(n4ncc(Cc5ccccc5)c24)CN(C(=O)c2ccc(Br)c(C#N)c2)CC3)cc1` [Compound 62, 4-[5-benzyl-12-(4-bromo-3-cyano-benzoyl)-8-oxo-2,3,7,12-tetrazatricyclo [7.4.0.0 2,6]trideca-1(9),3,5-trien-7-yl]-N-ethyl-benzamide] gave a negative-log EC50 (pEC50) of 5.30 to 6.30.

As to `CC(C)NC(=O)c1ccc(-n2c(=O)c3c(n4ncc(Cc5ccccc5)c24)CN(C(=O)c2ccc(Br)c(Cl)c2)CC3)cc1` [Compound 64, 4-[5-benzyl-12-(4-bromo-3-chloro-benzoyl)-8-oxo-2,3,7,12-tetrazatricyclo [7.4.0.0 2,6]trideca-1(9),3,5-trien-7-yl]-N-isopropyl-benzamide], the pEC50 was 5.30 to 6.30.

As to `CNC(=O)c1ccc(-n2c(=O)c3c(n4ncc(Cc5ccc(C#N)cc5F)c24)CN(C(=O)c2ccc(Br)c(C#N)c2)CC3)cc1` [Compound 84, 4-[12-(4-bromo-3-cyano-benzoyl)-5-[(4-cyano-2-fluoro-phenyl)methyl]-8-oxo-2,3,7,12-tetrazatricyclo [7.4.0.0 2,6]trideca-1(9),3,5-trien-7-yl]-N-methyl-benzamide], the negative-log EC50 (pEC50) was 5.30 to 6.30.

With `O=C(c1ccc(Br)c(Cl)c1)N1CCc2c(n3ncc(Cc4ccccc4)c3n(-c3ccc(-c4ncc[nH]4)cc3)c2=O)C1` [Compound 90, 5-benzyl-12-(4-bromo-3-chloro-benzoyl)-7-[4-(1H-imidazol-2-yl)phenyl]-2,3,7,12-tetrazatricyclo [7.4.0.0 2,6] trideca-1(9),3,5-trien-8-one], the pEC50 is 5.30 to 6.30.

`CNC(=O)c1ccc(-n2c(=O)c3c(n4ncc(Nc5ccc(F)cc5)c24)CN(C(=O)c2ccc(Br)c(C#N)c2)CC3)cc1` [Compound 63, 4-[12-(4-bromo-3-cyano-benzoyl)-5-(4-fluoroanilino)-8-oxo-2,3,7,12-tetrazatricyclo [7.4.0.0 2,6]trideca-1(9),3,5-trien-7-yl]-N-methyl-benzamide] gave a pEC50 of 6.30 to 7.00.

`O=C(c1ccc(Br)c(F)c1)N1CCc2c(n3ncc(Cc4ccccc4)c3n(-c3ccccc3)c2=O)C1` [Compound 9, 5-benzyl-12-(4-bromo-3-fluorobenzoyl)-7-phenyl-2,3,7,12-tetraazatricyclo[7.4.0.0^[2,6]]trideca-1(9),3,5-trien-8-one] gave a pEC50 of 6.30 to 7.00.

For `CNC(=O)c1ccc(-n2c(=O)c3c(n4ncc(Nc5ccccc5)c24)CN(C(=O)c2ccc(Cl)c(Cl)c2)CC3)cc1` [Compound 39, 4-[5-anilino-12-(3,4-dichlorobenzoyl)-8-oxo-2,3,7,12-tetrazatricyclo [7.4.0.0 2,6]trideca-1(9),3,5-trien-7-yl]-N-methyl-benzamide], the pEC50 was at least 7.00.

On to `CNC(=O)c1ccc(-n2c(=O)c3c(n4ncc(NCc5ccc(OC(F)F)cc5)c24)CN(C(=O)c2ccc(Cl)c(Cl)c2)CC3)cc1` [Compound 41, 4-[12-(3,4-dichlorobenzoyl)-5-[[4-(difluoromethoxy)phenyl]methylamino]-8-oxo-2,3,7,12-tetrazatricyclo [7.4.0.0 2,6]trideca-1(9),3,5-trien-7-yl]-N-methyl-benzamide], for which the negative logarithm of the EC50 (pEC50) was 5.30 to 6.30.

Regarding `COc1cccc(-n2c(=O)c3c(n4ncc(NCc5ccccc5)c24)CN(C(=O)c2ccc(Br)c(Cl)c2)CC3)c1` [Compound 28, 5-(benzylamino)-12-(4-bromo-3-chloro-benzoyl)-7-(3-methoxyphenyl)-2,3,7,12-tetrazatricyclo [7.4.0.0 2,6] trideca-1(9),3,5-trien-8-one], the negative logarithm of the EC50 (pEC50) is 6.30 to 7.00.

The molecule `O=C(c1ccc(Br)cc1)N1CCc2c(n3nccc3n(-c3ccccc3)c2=O)C1` [Compound 3, 8-(4-bromobenzoyl)-4-phenyl-6,7,8,9-tetrahydropyrazolo[1,5-a]pyrido[4,3-e]pyrimidin-5(4H)-one] gave a pEC50 below 5.30.

`NC(=O)c1ccc(-n2c(=O)c3c(n4ncc(Cc5ccccc5)c24)CN(C(=O)c2ccc(Br)c(Cl)c2)CC3)cc1` [Compound 75, 4-[5-benzyl-12-(4-bromo-3-chloro-benzoyl)-8-oxo-2,3,7,12-tetrazatricyclo [7.4.0.0 2,6]trideca-1(9),3,5-trien-7-yl] benzamide] showed a negative logarithm of the EC50 (pEC50) of 5.30 to 6.30.

Regarding `CNC(=O)c1ccc(-n2c(=O)c3c(n4ncc(Nc5ccccc5)c24)CN(C(=O)c2ccc(Br)c(Cl)c2)CC3)cc1` [Compound 40, 4-[5-anilino-12-(4-bromo-3-chloro-benzoyl)-8-oxo-2,3,7,12-tetrazatricyclo [7.4.0.0 2,6]trideca-1(9),3,5-trien-7-yl]-N-methyl-benzamide], the negative logarithm of the EC50 (pEC50) was at least 7.00.

Turning to `CNC(=O)c1ccc(-n2c(=O)c3c(n4ncc(Cc5ccccc5)c24)CN(C(=O)c2ccc(Br)c(C#N)c2)[C@@H](C)C3)cc1` (stereo in doubt) [Compound 80, N-methyl-4-[rac-(11S)-5-benzyl-12-(4-bromo-3-cyano-benzoyl)-11-methyl-8-oxo-2,3,7,12-tetrazatricyclo [7.4.0.0 2,6]trideca-1(9),3,5-trien-7-yl] benzamide], the negative logarithm of the EC50 (pEC50) was 6.30 to 7.00.

In the case of `O=C(c1ccc(Br)c(F)c1)N1CCc2c(n3nccc3n(-c3ccccc3)c2=O)C1` [Compound 4, 8-(4-bromo-3-fluorobenzoyl)-4-phenyl-6,7,8,9-tetrahydropyrazolo[1,5-a]pyrido[4,3-e]pyrimidin-5(4H)-one], the negative-log EC50 (pEC50) was below 5.30.

`CNC(=O)c1ccc(-n2c(=O)c3c(n4ncc(NCc5ccc(C#N)cc5)c24)CN(C(=O)c2ccc(Cl)c(Cl)c2)CC3)cc1` [Compound 51, 4-[5-[(4-cyanophenyl)methylamino]-12-(3,4-dichlorobenzoyl)-8-oxo-2,3,7,12-tetrazatricyclo [7.4.0.0 2,6]trideca-1(9),3,5-trien-7-yl]-N-methyl-benzamide]: the pEC50 was 5.30 to 6.30.

With `COc1ccc(Cn2c(=O)c3c(n4ncc(Cc5ccccc5)c24)CN(C(=O)c2ccc(Cl)c(Cl)c2)CC3)cc1` [Compound 14, 5-benzyl-12-(3,4-dichlorobenzoyl)-7-[(4-methoxyphenyl)methyl]-2,3,7,12-tetrazatricyclo [7.4.0.0^2,6] trideca-1(9),3,5-trien-8-one], the pEC50 was 5.30 to 6.30.

Still in this experiment, the particulars now being: intracellular HBV DNA by qPCR, 3 days incubation.
The molecule `Cc1cc2n(-c3ccccc3)c(=O)c3c(n2n1)CN(C(=O)c1ccc(Br)c(F)c1)CC3` [Compound 7, 12-(4-bromo-3-fluorobenzoyl)-4-methyl-7-phenyl-2,3,7,12-tetraazatricyclo[7.4.0.0^[2,6]]trideca-1(9),3,5-trien-8-one] showed a negative-log EC50 (pEC50) below 5.30.

For the molecule `CC(C)CC(=O)Nc1cnn2c3c(c(=O)n(-c4ccccc4)c12)CCN(C(=O)c1ccc(Cl)c(Cl)c1)C3` [Compound 17, N-[12-(3,4-dichlorobenzoyl)-8-oxo-7-phenyl-2,3,7,12-tetraazatricyclo[7.4.0.0^[2,6]]trideca-1(9),3,5-trien-5-yl]-3-methylbutanamide], the pEC50 was below 5.30.
